Broadly, the Ki is the dissociation constant of the complex between target and ligand, obtained from inhibition or displacement.

For one assay, the target named is T1, human FAAH (Homo sapiens, UniProt O00519).
T1 construct: host or cells: COS-7 cells, transient transfection (FuGENE 6); 13,000 g membrane fraction solubilised in 1% Triton X-100
T1 sequence (O00519 1-579): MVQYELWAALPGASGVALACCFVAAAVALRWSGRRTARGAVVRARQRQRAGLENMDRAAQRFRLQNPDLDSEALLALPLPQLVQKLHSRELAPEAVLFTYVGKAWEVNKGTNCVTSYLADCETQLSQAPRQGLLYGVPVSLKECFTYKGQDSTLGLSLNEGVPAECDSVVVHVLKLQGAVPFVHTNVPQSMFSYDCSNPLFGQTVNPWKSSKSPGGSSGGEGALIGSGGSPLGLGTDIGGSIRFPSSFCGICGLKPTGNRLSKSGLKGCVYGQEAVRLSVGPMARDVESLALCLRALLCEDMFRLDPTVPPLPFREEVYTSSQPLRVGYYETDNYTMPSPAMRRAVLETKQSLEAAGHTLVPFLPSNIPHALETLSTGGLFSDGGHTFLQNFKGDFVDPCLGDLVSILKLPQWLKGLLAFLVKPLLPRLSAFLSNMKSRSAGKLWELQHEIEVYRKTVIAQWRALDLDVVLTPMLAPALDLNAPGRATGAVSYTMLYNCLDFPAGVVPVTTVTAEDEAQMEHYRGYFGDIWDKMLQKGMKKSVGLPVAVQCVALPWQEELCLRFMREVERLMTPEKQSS
Briefly: Human FAAH biochemical inhibition assay (AMC arachidonoyl amide fluorescence). Conditions: Table A, read-out: Activity (Ki) of other boronic acids tested, Table A. The protocol: Exemplary compounds are set forth in the Examples provided below. Compounds were assayed as inhibitors of human FAAH using the method described in detail in Example 286.
The following assays may be used to determine the inhibition of FAAH by the compounds of the present invention: (1) a fluorescence-based assay for fatty acid amide hydrolase compatible with high-throughput screening as described in Manjunath et al., Analytical Biochemistry (2005) 343:143-151; and (2) a high-throughput screening for the discovery of inhibitors of fatty acid amide hydrolase using a microsome-based fluorescent assay. Wang et al., Biomolecular Screening (2006) 1-9.
COS-7 cells were split the day before, 1:5 into 150 mm×25 mm cell culture dishes (Corning Inc., Cat. No. 430599). Transient transfection took place at 30-40% confluency according to FuGENE 6 Transfection Reagent (Roche, Cat. No. 11814 443 001).
The FuGENE transfection 6 reagent (45 uL) was added to 1410 μL of media (DMEM, serum free without pen/strep) in a 15 mL conical tube and incubated at room temp for 5 minutes, followed by the addition of FAAH plasmid DNA (15 μg) (OriGene Cat. No. TC119221, Genbank Accession No. NM_001441.1, 0.67 ug/uL) and a further incubation of 15 minutes at room temperature. The resulting solution was added into one dish of 30-40% confluent COS-7 cells in a drop-wise manner. The COS-7 cell dish was subsequently incubated for 48 hours. The cells are then harvested.
Media was aspirated from the dishes and the cells rinsed with 10 mL PBS. The PBS was removed and 3 mL of PBS added to the dish. The dish was scraped to resuspend the cells, and the subsequent cell suspension collected into a 15 mL conical tube. The cells were pelleted by centrifugation at 1200 rpm for 5 minutes in a bench top centrifuge. PBS was removed and the cell pellet snap frozen in liquid nitrogen and stored at −80° C.
COS-7 Cells—FAAH Purification: • (1) Fractionation: Frozen cell pellets from transient transfections were thawed on ice and resuspended in 12.5 mM Hepes pH 8.0, 100 mM NaCl, 1 mM EDTA (10 mL/0.2 g cell pellet). The pellets were dounce homogenized and then sonicated to produce cell extract. The cell extract was subsequently centrifuged at 1000 g to remove cellular debris. The pellet was discarded and the supernatant centrifuged at 13,000 g for 20 minutes. The pellet contained membrane bound FAAH. The supernatant was discarded and the pellet resolubilized. • (2) Re-solubilization: The fraction of interest, (13,000 g, membrane fraction) was re-suspended in 2.3 mL re-suspension buffer (20 mM Hepes pH 7.8, 10% v/v Glycerol, 1 mM EDTA, 1% Triton X-100) and the sample incubated on ice for 1 hour and then centrifuged to remove any particulate matter. The supernatant containing solubilized human FAAH was aliquoted and snap frozen in liquid nitrogen and stored at −80° C. until use. • (3) Characterization: Protein Concentration determined by Bradford assay. • SDS gel and Western blot to confirm presence of FAAH • FAAH activity assay • Km determination—96-well assay • Linear dependence—96-well assay • Standard compound Ki determination—384-well assay
Rat FAAH biochemical assays were carried out in a 96 well flat bottom black non-treated polystyrene plates (Corning Costar Catalogue #3915). FAAH reaction buffer: 50 mM Hepes (pH 7.5), 1 mM EDTA, 0.2% Triton X-100. FAAH substrate—AMC Arachidonoyl Amide (Cayman Chemicals Company, Catalog #10005098). The reaction was read in an Envision microtiter plate reader [Excitation filter 355 nm (40 nm bandpass); Emmision filter 460 nm (25 nm bandpass)]. The raw fluorescence was plotted on the y axis and the inhibitor concentration on the x axis to give a dose response inhibition curve. The data was fitted to a single site competitive inhibition equation, fixing the Km for the rat and human enzyme to 12 μM and 9 μM respectively. […]
Take `CC(=O)Nc1ccc(B(O)O)cc1`: the Ki is greater than 1 µM.
As to `COCCNC(=O)c1ccc(B(O)O)cc1`, the Ki lay in the range of 0.1 to 1 µM.
The same measure, in the same setting: under `O=S(=O)(c1ccc(B(O)O)cc1)n1cccc1` stands 0.01 to 0.1 µM.
In the case of `CCOC(=O)COc1ccc(B(O)O)cc1`, the Ki fell in the range of 0.1 to 1 µM.
Consider `OB(O)c1ccc(C(F)(F)F)nc1`, for which the Ki lay within 0.1 to 1 µM.
Same read-out and setting: under `COC(=O)Nc1ccc(B(O)O)cc1` stands greater than 1 µM.

The assay is the same for the next values; noted with them: class given in each Example, read-out: Activity (Ki, inhibition of human FAAH).
`OB(O)c1ccc2nc(Oc3ccc(Cl)cc3)ccc2c1` [Compound 201]: the Ki was no more than 0.01 µM.
On the same count and under the same terms, under `OCCN1N=Cc2cc(OCCc3ccccc3)ccc2B1O` [Compound 107] stands greater than 1 µM.
As for `OB(O)c1ccc([C@H]2OC[C@@H](c3ccccc3)O2)cc1` [Compound 182], the Ki is no more than 0.01 µM.
The same measure, in the same setting: under `O=C(CCCC1CCN(Cc2ccc(B(O)O)cc2)CC1)c1ncco1` [Compound 329] stands 0.1 to 1 µM; under `O=C(N/N=C/c1cc(OCc2ccccc2)ccc1B(O)O)c1cccnc1` [Compound 125], 0.01 to 0.1 µM; under `CCCc1nnc(-c2ccc(B(O)O)cc2)o1` [Compound 39], no more than 0.01 µM.
Same read-out and setting: under `OB(O)c1csc(-c2nnc(CCc3ccccc3)o2)c1` [Compound 58] stands no more than 0.01 µM; under `OB(O)c1ccc([C@H]2OC[C@H](c3ccccc3)CO2)cc1F` [Compound 173], no more than 0.01 µM; under `COc1cccc(Cn2cc(-c3ccc(B(O)O)cc3)nn2)c1` [Compound 128], 0.01 to 0.1 µM.
Still for that read-out and setting: under `COc1ccc2cc(B(O)O)ccc2n1` [Compound 202] stands 0.01 to 0.1 µM; under `CN(CCCc1ccc(B(O)O)cc1)C(=O)OC(C)(C)C` [Compound 235], no more than 0.01 µM.
For `OB(O)c1ccc2nc(Cc3ccccc3)oc2c1` [Compound 241], the inhibition constant (Ki) is no more than 0.01 µM.
For the compound `OB(O)c1ccc2nc(-c3ccccc3)c(Br)n2c1` [Compound 317], the Ki was no more than 0.01 µM.
As for `OB(O)c1ccc2cc(Oc3ccccc3)ccc2c1` [Compound 216], the Ki was no more than 0.01 µM.
Still for that read-out and setting: under `O=S(=O)(c1ccccc1)N1CCC(Cc2nc3ccc(B(O)O)cc3o2)CC1` [Compound 305] stands 0.01 to 0.1 µM.
The same measure, in the same setting: under `OB(O)c1ccc(-c2nnc(-c3ccccc3)o2)c(F)c1` [Compound 67] stands 0.01 to 0.1 µM.
The same measure, in the same setting: next, `OB(O)c1ccc2nc(CCCC(F)(F)F)oc2c1` [Compound 246]: no more than 0.01 µM; `NCCc1nnc(-c2ccc(B(O)O)cc2)o1` [Compound 84]: greater than 1 µM.
Take `CCCN1CCC(Cc2nc3ccc(B(O)O)cc3o2)CC1` [Compound 303]: the Ki was 0.1 to 1 µM.
Same read-out and setting: next, `CCCCCN1C(=O)c2ccc(B(O)O)cc2C1=O` [Compound 307]: no more than 0.01 µM; `CCCCCC1CC(c2ccc(B(O)O)cc2)=NO1` (stereo not shown) [Compound 161]: no more than 0.01 µM.
For the compound `CCCc1noc(-c2cc(OCCc3ccccc3)ccc2B(O)O)n1` [Compound 273], the Ki was 0.01 to 0.1 µM.
On the same count and under the same terms, under `OB(O)c1ccc2nc(OC3CCCCC3)ccc2c1` [Compound 192] stands 0.01 to 0.1 µM.
On the same count and under the same terms, next, `CCCc1cnc(-c2cc(OCCc3ccccc3)ccc2B(O)O)s1` [Compound 276]: 0.01 to 0.1 µM.
The same measure, in the same setting: next, `OB(O)c1ccc(-n2cc(-c3ccccc3)nn2)cc1` [Compound 143]: no more than 0.01 µM.
On to `OB1NN=Cc2cc(OCc3ccccc3)ccc21` [Compound 258], for which the inhibitory constant (Ki) is greater than 1 µM.
Still for that read-out and setting: under `OB(O)c1ccc2c(cnn2Cc2ccccc2)c1` [Compound 316] stands no more than 0.01 µM; under `O=S(=O)(c1ccccc1)N1CCC(c2ccc(B(O)O)cc2)CC1` [Compound 236], 0.01 to 0.1 µM; under `O=[N+]([O-])c1cccc(Oc2ccc3cc(B(O)O)ccc3n2)c1` [Compound 195], no more than 0.01 µM.
Still for that read-out and setting: next, `OB(O)c1ccc(OCCc2ccccc2)cc1-c1nnc(-c2ccco2)o1` [Compound 18]: no more than 0.01 µM; `COc1ccc2cc(-c3ccc(B(O)O)cc3)ccc2c1` [Compound 228]: 0.01 to 0.1 µM; `OB1ON=Cc2cc(OCCc3ccccc3)ccc21` [Compound 104]: 0.01 to 0.1 µM.
Still for that read-out and setting: next, `OB(O)c1ccc(-n2nncc2-c2ccccc2)cc1F` [Compound 142]: 0.1 to 1 µM; `CC(C)Cc1nnc(-c2ccccc2B(O)O)o1` [Compound 284]: greater than 1 µM.
In the case of `OB(O)c1ccc(-c2nnc(-c3ccccc3)o2)cc1` [Compound 71], the Ki is no more than 0.01 µM.
As to `OB(O)c1ccc(-c2nnc(CC3CCCC3)o2)cc1` [Compound 35], the Ki is no more than 0.01 µM.
Same read-out and setting: under `COc1cccc(Oc2ccc3cc(B(O)O)ccc3n2)c1` [Compound 189] stands no more than 0.01 µM; under `OB(O)c1ccc(-n2cc(-c3ccccc3)nn2)cc1F` [Compound 141], 0.01 to 0.1 µM; under `CCCCCc1nnc(-c2ccc(B(O)O)c(F)c2)o1` [Compound 26], no more than 0.01 µM.
Take `OB(O)c1ccc([C@H]2OC[C@H](c3ccccc3)CO2)cc1` [Compound 175]: the Ki was no more than 0.01 µM.
Still for that read-out and setting: under `OB(O)c1ccc2nc(CC3CCN(Cc4ccccc4)CC3)oc2c1` [Compound 302] stands 0.01 to 0.1 µM.
Still for that read-out and setting: next, `CC(C)(C)c1nnc(-c2ccc(B(O)O)cc2)o1` [Compound 77]: no more than 0.01 µM; `Cc1cc(Oc2ccccc2)nc2c(C)cc(B(O)O)cc12` [Compound 212]: 0.01 to 0.1 µM; `OB(O)c1ccc2nc(Oc3ccccn3)ccc2c1` [Compound 215]: no more than 0.01 µM.
The same measure, in the same setting: under `NCC(=O)N/N=C/c1cc(OCc2ccccc2)ccc1B(O)O` [Compound 118] stands greater than 1 µM; under `COCCCc1cn(-c2ccccc2)nc1-c1ccc(B(O)O)cc1` [Compound 92], greater than 1 µM.
In the case of `CCCC1CC(c2ccccc2B(O)O)=NO1` (stereo not shown) [Compound 167], the Ki was 0.01 to 0.1 µM.
Same read-out and setting: under `OB(O)c1ccc(-c2nnc(-c3cccc4c3OC(F)(F)O4)o2)cc1` [Compound 52] stands no more than 0.01 µM; under `OB(O)c1ccc(-c2nnc(CCC(F)(F)C(F)(F)F)o2)cc1` [Compound 20], no more than 0.01 µM; under `OB(O)c1ccccc1-c1nnc(-c2ccco2)o1` [Compound 264], greater than 1 µM.
Still for that read-out and setting: next, `OB(O)c1ccc(-c2nnc(CCC3CCCCC3)o2)cc1` [Compound 36]: no more than 0.01 µM; `COc1ccc2c(c1)B(O)N(Cc1ccccc1)N=C2` [Compound 255]: greater than 1 µM.
Same read-out and setting: next, `OB(O)c1ccc(OCc2ccccc2)cc1CNCc1ccccc1` [Compound 111]: 0.1 to 1 µM; `OCc1cc(OCc2ccccc2)ccc1B(O)O` [Compound 96]: greater than 1 µM.
Take `CN1N=Cc2cc(OCCc3ccccc3)ccc2B1O` [Compound 108]: the Ki was greater than 1 µM.
